Structures are written as SMILES.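 A five-concentration, 48-hour dose response in 96-well plates underlies each endpoint, interpolated linearly between surrounding concentrations. GI50 is the concentration that inhibits growth by half. Definition used: TGI = concentration required for complete inhibition of growth.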 Where a SMILES comes first, the peptide text is derived from it. [ ]: non-standard residue; d: D form. β3hI = CC[CH](C)[CH](N)CC(=O)O

Test systems include HOP-62 NSCLC; SK-MEL-28 melanoma; KM12 colon; T-47D breast; NCI-H460 lung; TK-10 renal; UACC-257 melanoma; MCF7 breast; CCRF-CEM leukemia; SK-MEL-5 melanoma; M14 melanoma; UO-31 renal; UACC-62 melanoma; HCC-2998 colon; HS 578T breast; MALME-3M melanoma.
Experiment in all cases: NCI tumour cell line growth inhibition, 48 h

As for `COc1ccc(/C=C/C(=O)N[C@@H]2C(=O)N3[C@@H]2SC(C)(C)[C@@H]3C(=O)O)cc1`, the TGI in the assay with HOP-62 NSCLC, in the assay with SK-MEL-28 melanoma, in the assay on KM12 colon, in the assay on T-47D breast, in the assay with NCI-H460 lung and with TK-10 renal was above 100 µM throughout. The TGI in the assay on UACC-257 melanoma, in the assay on MCF7 breast, in the assay with CCRF-CEM leukemia, with SK-MEL-5 melanoma, with M14 melanoma and in the assay on UO-31 renal was above 100 µM throughout. In addition, the TGI with UACC-62 melanoma, in the assay with HCC-2998 colon and with HS 578T breast was above 100 µM throughout.
Take `COc1ccc2c(c1)N=C1CSC(c3cc([N+](=O)[O-])ccc3Cl)N1C2` (stereo unspecified): the TGI was 97.2 µM with HOP-62 NSCLC; 83.7 µM with SK-MEL-28 melanoma; 46.3 µM in the assay with KM12 colon; above 100 µM in the assay on T-47D breast; 45.4 µM with NCI-H460 lung; 55.4 µM in the assay with TK-10 renal. For the same molecule, the TGI is 37.9 µM with UACC-257 melanoma; 60.4 µM in the assay with MALME-3M melanoma; 42.6 µM with MCF7 breast; above 100 µM in the assay with SK-MEL-5 melanoma; 86.8 µM with M14 melanoma; 57.9 µM in the assay on UO-31 renal. In addition, the TGI is 42.1 µM in the assay on UACC-62 melanoma, 33 µM in the assay on HCC-2998 colon and above 100 µM in the assay on HS 578T breast.
Consider `COC(=O)C(Cc1ccccc1)OC(=O)C(N)CC(=O)O` (stereo unspecified), for which the TGI in the assay with HOP-62 NSCLC, in the assay with SK-MEL-28 melanoma, in the assay on T-47D breast, in the assay on NCI-H460 lung, in the assay on TK-10 renal and in the assay with UACC-257 melanoma was above 100 µM each time. Also, the TGI in the assay on MALME-3M melanoma, in the assay with MCF7 breast, in the assay on SK-MEL-5 melanoma, in the assay with M14 melanoma, in the assay on UO-31 renal and in the assay on UACC-62 melanoma was above 100 µM each time. For the same molecule, the TGI in the assay with HCC-2998 colon and in the assay on HS 578T breast was above 100 µM throughout.
On to `COc1cccc(/C=C2\CCCCCC2=O)c1`, for which the TGI in the assay with HOP-62 NSCLC, in the assay with SK-MEL-28 melanoma, with KM12 colon, with T-47D breast, in the assay on NCI-H460 lung and in the assay with TK-10 renal was above 100 µM in each case. The TGI with UACC-257 melanoma, with MALME-3M melanoma, with SK-MEL-5 melanoma, with M14 melanoma, with UO-31 renal and in the assay with UACC-62 melanoma was above 100 µM each time. Also, the TGI with HCC-2998 colon and in the assay on HS 578T breast was above 100 µM each time.
Regarding `CCC(C)C(CC(=O)N1CCCC1C(=O)NC(C(=O)NC(C(=O)NCC(=O)NC(CC(N)=O)C(=O)NC(C(=O)NC(C(=O)NC(CCCCN)C(N)=O)C(C)CC)C(C)CC)C(C)C)C(C)CC)NC(=O)C(N)C(C)CC` (stereo not drawn) (H-I[β3hI]PIVGNIIK-NH2; configuration not given here), the TGI in the assay with HOP-62 NSCLC, with SK-MEL-28 melanoma, in the assay on KM12 colon, in the assay with T-47D breast, in the assay on TK-10 renal and in the assay on UACC-257 melanoma was above 50 µM each time. Moreover, the TGI in the assay with MALME-3M melanoma, with MCF7 breast, with CCRF-CEM leukemia, in the assay with SK-MEL-5 melanoma, with M14 melanoma and in the assay with UO-31 renal was above 50 µM each time. Also, the TGI in the assay with UACC-62 melanoma and in the assay with HS 578T breast was above 50 µM in each case.
As for `CCOC(=O)[C@@]12CCC(C1=O)[C@](C)(O)C[C@@H]2c1ccccc1`, the TGI in the assay with HOP-62 NSCLC, in the assay with SK-MEL-28 melanoma, in the assay with KM12 colon, in the assay with T-47D breast, with NCI-H460 lung and in the assay on TK-10 renal was above 100 µM throughout. Besides, the TGI in the assay with UACC-257 melanoma, with MALME-3M melanoma, in the assay with CCRF-CEM leukemia, in the assay with SK-MEL-5 melanoma, in the assay with M14 melanoma and with UO-31 renal was above 100 µM in each case. Further, the TGI is above 100 µM in the assay on UACC-62 melanoma and 61.7 µM in the assay with HS 578T breast.
Consider `CC(=O)Oc1cc2c(cc1OC(C)=O)[C@H]1CC[C@]3(C)[C@@H](OC(C)=O)CC[C@H]3[C@@H]1CC2`, for which the GI50 is 4.81 µM in the assay with HOP-62 NSCLC and 2.48 µM in the assay on UACC-62 melanoma. The TGI in the assay on HOP-62 NSCLC was 26.7 µM; with SK-MEL-28 melanoma, 19.7 µM; in the assay on KM12 colon, 23.4 µM; in the assay with T-47D breast, 22.2 µM; in the assay on NCI-H460 lung it was 20.6 µM; in the assay on TK-10 renal, 20.8 µM. Besides, the TGI in the assay on UACC-257 melanoma stood at 22.4 µM; in the assay on MCF7 breast, 20.9 µM; in the assay with SK-MEL-5 melanoma it was 20.4 µM; with M14 melanoma, 21.1 µM; in the assay on UO-31 renal, 13 µM; with UACC-62 melanoma, 13.1 µM. Further, the TGI with HCC-2998 colon turned out to be 21.1 µM; in the assay on HS 578T breast, 25.2 µM.
As for `CC(C)NCC(O)c1ccc(OCc2ccccc2)c(OCc2ccccc2)c1-c1ccccc1` (stereo unspecified), the TGI with HOP-62 NSCLC worked out at 3.25 µM; in the assay with T-47D breast, 7.53 µM; in the assay with NCI-H460 lung it was 3.49 µM; with TK-10 renal, 3.9 µM; with UACC-257 melanoma it was 3.54 µM; with MALME-3M melanoma, 3.16 µM. Moreover, the TGI was 3.22 µM in the assay with MCF7 breast; 2.5 µM in the assay with SK-MEL-5 melanoma; 7.82 µM with UO-31 renal; 2.72 µM in the assay on UACC-62 melanoma; 3.06 µM in the assay on HCC-2998 colon; 2.74 µM in the assay on HS 578T breast.
`CC(=O)N[C@H]1CCCC[C@@H]1OC(C)=O`: the TGI in the assay on HOP-62 NSCLC, in the assay with SK-MEL-28 melanoma, in the assay with KM12 colon, with T-47D breast, in the assay on NCI-H460 lung and in the assay with TK-10 renal was above 100 µM each time. Besides, the TGI in the assay on UACC-257 melanoma, in the assay with MALME-3M melanoma, in the assay on MCF7 breast, in the assay on SK-MEL-5 melanoma, in the assay with UACC-62 melanoma and in the assay with HCC-2998 colon was above 100 µM each time. The TGI in the assay on HS 578T breast is above 100 µM.
As for `CCOP(=O)(C=C=C(C)C)OCC`, the TGI in the assay on HOP-62 NSCLC, with SK-MEL-28 melanoma, in the assay with KM12 colon, with T-47D breast, in the assay with NCI-H460 lung and in the assay on TK-10 renal was above 100 µM throughout. For the same molecule, the TGI with UACC-257 melanoma, with MALME-3M melanoma, in the assay with MCF7 breast, in the assay on SK-MEL-5 melanoma, in the assay with M14 melanoma and in the assay with UACC-62 melanoma was above 100 µM in each case. The TGI with HCC-2998 colon and in the assay with HS 578T breast was above 100 µM throughout.

These data come from PubChem BioAssay (NCI).
